# From patent US20250179059A1 (The Regents of the University of California, priority 2021, published 2025)
# Key:
# [1] = target: T1, human BRD4 bromodomain II (Homo sapiens, UniProt O60885); assay: Bromodomain binding assay (AlphaScreen), BRD4 BDII; settings: AlphaScreen assay, Table C2; read-out: BRD4 BDII IC50
# T1 construct: human BRD4 bromodomain II [based on Genbank NM_058243, residues 349-460]; host or cells: E. coli
# Outline: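 Tagged BRD4 BDI or BDII constructs, expressed in E. coli, competed against a K5/K8/K12/K16-acetylated biotin-H4 peptide. Proximity signal between bead pairs after room-temperature incubations gave concentration-response curves, from which IC50 was derived.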
# [2] = tested on: human SKM-1 acute myeloid leukemia cells; assay: SKM-1 antiproliferation cell-based assay (ATPlite); settings: Homo sapiens, SKM-1, 96 h, SKM-1 antiproliferation assay, 4 days, Table C2
# Outline: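 Log-phase cells in RPMI 1640/15% FBS were seeded at 34722 cells/mL and exposed for 4 days to nine-concentration DMSO serial dilutions in triplicate. Viability was read as ATP luminescence (ATPlite 1step), and IC50 values came from variable-slope non-linear regression.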
Compound,IC50 [1] [nM],GI50 [2] [nM]
"Cn1ccn(-c2ccc(-c3cc(F)cc(-c4cncc(N5CCNC6(CC6)C5)c4)c3O)cc2Cl)c1=O [Example 550, 1-(3′-(5-(4,7-diazaspiro[2.5]octan-7-yl)pyridin-3-yl)-3-chloro-5′-fluoro-2′-hydroxy-[1,1′-biphenyl]-4-yl)-3-methyl-1H-imidazol-2(3H)-one]",0.01 to 1,0.3 to 30
"C[C@@H]1CN(c2cc(-c3cc(F)cc(-c4ccc(-n5ccn(C)c5=O)c(Cl)c4)c3O)cc3[nH]ccc23)CCN1 [Example 551, (R)-1-(3-chloro-5′-fluoro-2′-hydroxy-3′-(4-(3-methylpiperazin-1-yl)-1H-indol-6-yl)-[1,1′-biphenyl]-4-yl)-3-methyl-1H-imidazol-2(3H)-one]",0.01 to 1,0.3 to 30
"Cn1ccn(-c2ccc(-c3cc(F)cc(-c4cc(-c5cn[nH]c5)nc(N5CCNCC5)c4)c3O)cc2Cl)c1=O [Example 552, 1-(3-chloro-5′-fluoro-2′-hydroxy-3′-(2-(piperazin-1-yl)-6-(1H-pyrazol-4-yl)pyridin-4-yl)-[1,1′-biphenyl]-4-yl)-3-methyl-1H-imidazol-2(3H)-one]",0.01 to 1,0.3 to 30
"Cn1ccn(-c2ccc(-c3cc(F)cc(-c4cc(-c5ccn[nH]5)nc(N5CCNCC5)c4)c3O)cc2Cl)c1=O [Example 553, 1-(3-chloro-5′-fluoro-2′-hydroxy-3′-(2-(piperazin-1-yl)-6-(1H-pyrazol-5-yl)pyridin-4-yl)-[1,1′-biphenyl]-4-yl)-3-methyl-1H-imidazol-2(3H)-one]",1 to 10,0.3 to 30
"Cn1ccn(-c2ccc(-c3cc(F)cc(-c4ccnc(N5CC6CNC(C6)C5)c4)c3O)cc2Cl)c1=O (stereo not shown) [Example 554, 1-(3′-(2-(3,6-diazabicyclo[3.2.1]octan-3-yl)pyridin-4-yl)-3-chloro-5′-fluoro-2′-hydroxy-[1,1′-biphenyl]-4-yl)-3-methyl-1H-imidazol-2(3H)-one]",1 to 10,0.3 to 30
"C[C@@H]1CN(c2cc(-c3cc(F)cc(-c4ccc(-n5ccn(C)c5=O)c(Cl)c4)c3O)ccn2)C[C@H](C)N1 [Example 555, 1-(3-chloro-3′-(2-((3R,5S)-3,5-dimethylpiperazin-1-yl)pyridin-4-yl)-5′-fluoro-2′-hydroxy-[1,1′-biphenyl]-4-yl)-3-methyl-1H-imidazol-2(3H)-one]",1 to 10,0.3 to 30
"Cn1ccn(-c2ccc(-c3cc(F)cc(-c4ccnc(N5CCN[C@H](CO)C5)c4)c3O)cc2Cl)c1=O [Example 556, (S)-1-(3-chloro-5′-fluoro-2′-hydroxy-3′-(2-(3-(hydroxymethyl)piperazin-1-yl)pyridin-4-yl)-[1,1′-biphenyl]-4-yl)-3-methyl-1H-imidazol-2(3H)-one]",1 to 10,0.3 to 30
"Cc1cc(-c2ccc(-n3ccn(C)c3=O)c(Cl)c2)c(O)c(-c2cc(N3CCNCC3)c3cc[nH]c3c2)c1 [Example 557, 1-(3-chloro-2′-hydroxy-5′-methyl-3′-(4-(piperazin-1-yl)-1H-indol-6-yl)-[1,1′-biphenyl]-4-yl)-3-methyl-1H-imidazol-2(3H)-one]",1 to 10,0.3 to 30
"Cn1ccn(-c2ccc(-c3cc(F)cc(-c4cc(N5CC[C@H](N)C5)c5cn[nH]c5c4)c3O)cc2Cl)c1=O [Example 558, (S)-1-(3′-(4-(3-aminopyrrolidin-1-yl)-1H-indazol-6-yl)-3-chloro-5′-fluoro-2′-hydroxy-[1,1′-biphenyl]-4-yl)-3-methyl-1H-imidazol-2(3H)-one]",1 to 10,0.3 to 30
"Cn1ccn(-c2ccc(-c3cc(F)cc(-c4ccnc(N5CCNC6(CC6)C5)c4)c3O)cc2Cl)c1=O [Example 559, 1-(3′-(2-(4,7-diazaspiro[2.5]octan-7-yl)pyridin-4-yl)-3-chloro-5′-fluoro-2′-hydroxy-[1,1′-biphenyl]-4-yl)-3-methyl-1H-imidazol-2(3H)-one]",0.01 to 1,30 to 300
"Cn1ccn(-c2ccc(-c3cc(F)cc(-c4ccnc(N5CCN6C(=O)OC[C@@H]6C5)c4)c3O)cc2Cl)c1=O [Example 560, (S)-7-(4-(3′-chloro-5-fluoro-2-hydroxy-4′-(3-methyl-2-oxo-2,3-dihydro-1H-imidazol-1-yl)-[1,1′-biphenyl]-3-yl)pyridin-2-yl)tetrahydro-1H-oxazolo[3,4-a]pyrazin-3(5H)-one]",1 to 10,30 to 300
"Cn1ccn(-c2ccc(-c3cc(F)cc(-c4cncc(N5CCNC(C)(C)C5)c4)c3O)cc2Cl)c1=O [Example 561, 1-(3-chloro-3′-(5-(3,3-dimethylpiperazin-1-yl)pyridin-3-yl)-5′-fluoro-2′-hydroxy-[1,1′-biphenyl]-4-yl)-3-methyl-1H-imidazol-2(3H)-one]",0.01 to 1,0.3 to 30
"Cc1cc(-c2ccc(-n3ccn(C)c3=O)c(Cl)c2)c(O)c(-c2cc(N3CCNCC3)c3nccnc3c2)c1 [Example 562, 1-(3-chloro-2′-hydroxy-5′-methyl-3′-(8-(piperazin-1-yl)quinoxalin-6-yl)-[1,1′-biphenyl]-4-yl)-3-methyl-1H-imidazol-2(3H)-one]",0.01 to 1,0.3 to 30
"Cn1ccn(-c2ccc(-c3cc(F)cc(-c4ccnc(N5CCNC(C)(C)C5)c4)c3O)cc2Cl)c1=O [Example 563, 1-(3-chloro-3′-(2-(3,3-dimethylpiperazin-1-yl)pyridin-4-yl)-5′-fluoro-2′-hydroxy-[1,1′-biphenyl]-4-yl)-3-methyl-1H-imidazol-2(3H)-one]",0.01 to 1,0.3 to 30
Cc1cc(-c2ccc(-n3ccn(C)c3=O)c(Cl)c2)c(O)c(-c2cc(N3CC[C@H](N)C3)c3nc[nH]c3c2)c1 [Example 564],0.01 to 1,0.3 to 30
Cc1cc(-c2ccc(-n3ccn(C)c3=O)c(Cl)c2)c(O)c(-c2cc(N3CCNCC3)c3nn[nH]c3c2)c1 [Example 565],0.01 to 1,0.3 to 30
Cc1cc(-c2cc(-c3cn[nH]c3)nc(N3CCNCC3)c2)c(O)c(-c2ccc(-n3ccn(C)c3=O)c(Cl)c2)c1 [Example 566],0.01 to 1,0.3 to 30
Cc1cc(-c2ccc(-n3ccn(C)c3=O)c(Cl)c2)c(O)c(-c2cc(N3CCN[C@H](C)C3)c3cc[nH]c3c2)c1 [Example 567],1 to 10,0.3 to 30

Compound,IC50 [1] [nM],GI50 [2] [nM]
Cn1ccn(-c2ccc(-c3cc(F)cc(-c4cc(-c5ccn[nH]5)cc(N5CCNCC5)c4)c3O)cc2Cl)c1=O [Example 568],0.01 to 1,0.3 to 30
Cc1cc(-c2cc(-c3ccn[nH]3)cc(N3CCNCC3)c2)c(O)c(-c2ccc(-n3ccn(C)c3=O)c(Cl)c2)c1 [Example 569],1 to 10,30 to 300
Cc1cc(-c2cc(-c3cn[nH]c3)cc(N3CCNCC3)c2)c(O)c(-c2ccc(-n3ccn(C)c3=O)c(Cl)c2)c1 [Example 570],1 to 10,0.3 to 30
Cn1ccn(-c2ccc(-c3cc(F)cc(-c4cc(-c5cn[nH]c5)cc(N5CCNCC5)c4)c3O)cc2Cl)c1=O [Example 571],1 to 10,0.3 to 30
Cn1ccn(-c2ccc(-c3cc(F)cc(-c4cncc(N5CC6CNC(C6)C5)c4)c3O)cc2Cl)c1=O (stereo not shown) [Example 572],0.01 to 1,0.3 to 30
Cn1ccn(-c2ccc(-c3cc(F)cc(-c4cc(N5CC6CCC(C5)N6)c5cn[nH]c5c4)c3O)cc2Cl)c1=O [Example 573],0.01 to 1,0.3 to 30
Cc1cc(-c2ccc(-n3ccn(C)c3=O)c(Cl)c2)c(O)c(-c2cc(N3CCN[C@H](C)C3)c3nccnc3c2)c1 [Example 574],0.01 to 1,0.3 to 30
Cc1cc(-c2ccc(-n3ccn(C)c3=O)c(Cl)c2)c(O)c(-c2cc(N3CC[C@H](N)C3)c3nccnc3c2)c1 [Example 575],0.01 to 1,0.3 to 30
C[C@@H]1CN(c2cc(-c3cc(F)cc(-c4ccc(-n5ccn(C)c5=O)c(Cl)c4)c3O)cc3c2ncn3C)CCN1 [Example 576],0.01 to 1,0.3 to 30
C[C@@H]1CN(c2cc(-c3cc(F)cc(-c4ccc(-n5ccn(C)c5=O)c(Cl)c4)c3O)cc3[nH]ncc23)C[C@H](C)N1 [Example 577],0.01 to 1,0.3 to 30
Cn1ccn(-c2ccc(-c3cc(F)cc(-c4cc(N5CCC[C@H](N)C5)c5cn[nH]c5c4)c3O)cc2Cl)c1=O [Example 578],0.01 to 1,0.3 to 30
"C[C@@H]1CN(c2cc(-c3cc(F)cc(-c4ccc(-n5ccn(C)c5=O)c(Cl)c4)c3O)cc3c2ccn3C)CCN1 [Example 579, (R)-1-(3-chloro-5′-fluoro-2′-hydroxy-3′-(1-methyl-4-(3-methylpiperazin-1-yl)-1H-indol-6-yl)-[1,1′-biphenyl]-4-yl)-3-methyl-1H-imdazol-2(3H)-one]",0.01 to 1,0.3 to 30
C[C@@H]1CN(c2cc(-c3cc(F)cc(-c4ccc(-n5ccn(C)c5=O)c(Cl)c4)c3O)cc3c2cnn3C)CCN1 [Example 580],0.01 to 1,0.3 to 30
Cn1ccn(-c2ccc(-c3cc(F)cc(-c4cc(N5CCC(N)CC5)c5cn[nH]c5c4)c3O)cc2Cl)c1=O [Example 581],0.01 to 1,30 to 300
CCN1CCN(c2cc(-c3cc(F)cc(-c4ccc(-n5ccn(C)c5=O)c(Cl)c4)c3O)cc3[nH]ncc23)CC1 [Example 582],0.01 to 1,0.3 to 30
CN[C@H]1CCN(c2cc(-c3cc(F)cc(-c4ccc(-n5ccn(C)c5=O)c(Cl)c4)c3O)cc3[nH]ncc23)C1 [Example 583],1 to 10,0.3 to 30
C[C@@H]1CN(c2cc(-c3cc(F)cc(-c4ccc(-n5ccn(C)c5=O)c(Cl)c4)c3O)cn3ccnc23)CCN1 [Example 584],0.01 to 1,0.3 to 30
